Reference: ChEMBL document CHEMBL1909046, “DrugMatrix in vitro pharmacology data”

Tests used:
[1] = target: Beta-1 adrenergic receptor (Homo sapiens, UniProt P08588); test: DRUGMATRIX: Adrenergic beta1 radioligand binding (ligand: [125I] Cyanopindolol); assay type: cell membranes, CHO-K1, Membrane; settings: cho-k1; Not Active = under 50% inhibition at 10 µM
[2] = DRUGMATRIX: beta-Lactamase enzyme inhibition (substrate: Nitrocefin); design: species or system Bacillus cereus; settings: Not Active = under 50% inhibition at 10 µM
[3] = target: T1, Calcitonin receptor (Homo sapiens, UniProt P30988); assay type: cell membranes, Membrane; settings: t47d; also: in other assays of this panel Not Active means under 50% inhibition at 10 µM
T1 sequence (P30988 whole entry): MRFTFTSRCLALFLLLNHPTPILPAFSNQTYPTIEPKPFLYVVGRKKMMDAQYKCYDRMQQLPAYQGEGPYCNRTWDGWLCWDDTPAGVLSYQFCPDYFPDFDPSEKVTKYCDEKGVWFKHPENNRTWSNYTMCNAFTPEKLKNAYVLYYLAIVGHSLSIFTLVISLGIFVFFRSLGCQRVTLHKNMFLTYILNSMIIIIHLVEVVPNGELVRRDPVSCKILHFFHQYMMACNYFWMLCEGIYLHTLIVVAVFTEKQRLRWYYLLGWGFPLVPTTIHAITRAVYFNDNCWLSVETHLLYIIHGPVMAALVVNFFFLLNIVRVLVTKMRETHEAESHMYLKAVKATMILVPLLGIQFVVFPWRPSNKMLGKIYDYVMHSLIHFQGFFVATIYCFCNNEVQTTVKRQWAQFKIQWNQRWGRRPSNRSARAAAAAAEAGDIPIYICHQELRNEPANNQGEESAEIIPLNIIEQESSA

[4] = DRUGMATRIX: Sigma2 radioligand binding (ligand: [3H] Ifenprodil); assay type: cell membranes, Rattus norvegicus, Wistar, Brain, Membrane; settings: Not Active = under 50% inhibition at 10 µM
[5] = target: D(1A) dopamine receptor (Homo sapiens, UniProt P21728); test: DRUGMATRIX: Dopamine D1 radioligand binding (ligand: [3H] SCH-23390); assay type: cell membranes, CHO, Membrane; settings: cho, Not Active = under 50% inhibition at 10 µM
D(1A) dopamine receptor, sequence (P21728 whole entry): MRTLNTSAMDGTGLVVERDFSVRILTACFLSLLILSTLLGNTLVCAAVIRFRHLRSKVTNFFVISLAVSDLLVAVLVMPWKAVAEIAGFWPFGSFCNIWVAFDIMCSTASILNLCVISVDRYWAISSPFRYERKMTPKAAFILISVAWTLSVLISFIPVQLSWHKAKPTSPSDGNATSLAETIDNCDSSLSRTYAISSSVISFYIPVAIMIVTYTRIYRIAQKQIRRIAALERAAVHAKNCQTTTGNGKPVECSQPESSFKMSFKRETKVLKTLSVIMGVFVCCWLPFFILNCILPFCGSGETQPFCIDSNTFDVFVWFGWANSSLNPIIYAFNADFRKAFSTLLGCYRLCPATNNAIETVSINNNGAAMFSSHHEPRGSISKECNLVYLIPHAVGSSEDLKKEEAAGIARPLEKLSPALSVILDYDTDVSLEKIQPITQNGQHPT

[6] = DRUGMATRIX: Glutamate, Kainate radioligand binding (ligand: [3H] Kainic acid); assay type: cell membranes, Rattus norvegicus, Wistar, Brain, Membrane; settings: Not Active = under 50% inhibition at 10 µM
[7] = target: Histamine H2 receptor (Homo sapiens, UniProt P25021); assay type: cell membranes, CHO-K1, Membrane; settings: cho-k1; also: in other assays of this panel Not Active means under 50% inhibition at 10 µM
Histamine H2 receptor, sequence (P25021 whole entry): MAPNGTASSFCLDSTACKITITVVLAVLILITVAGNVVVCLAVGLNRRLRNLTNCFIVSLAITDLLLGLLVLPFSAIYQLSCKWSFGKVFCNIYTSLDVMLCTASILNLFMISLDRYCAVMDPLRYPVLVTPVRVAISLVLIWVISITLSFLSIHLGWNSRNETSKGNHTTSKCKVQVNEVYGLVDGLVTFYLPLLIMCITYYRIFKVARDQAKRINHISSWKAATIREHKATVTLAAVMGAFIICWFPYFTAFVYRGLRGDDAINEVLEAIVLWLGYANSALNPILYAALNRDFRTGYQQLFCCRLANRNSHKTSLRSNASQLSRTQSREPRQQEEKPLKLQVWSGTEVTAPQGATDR

[8] = target: T2, Polyunsaturated fatty acid lipoxygenase ALOX15 (Oryctolagus cuniculus, UniProt P12530); test: biochemical; assay type: tissue-based, Reticulocytes; settings: reticulocytes;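 also: inhibition of 15-lipoxygenase enzyme activity measured with linoleic acid as the substrate; in other assays of this panel Not Active means under 50% inhibition at 10 µM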
T2 sequence (P12530 whole entry): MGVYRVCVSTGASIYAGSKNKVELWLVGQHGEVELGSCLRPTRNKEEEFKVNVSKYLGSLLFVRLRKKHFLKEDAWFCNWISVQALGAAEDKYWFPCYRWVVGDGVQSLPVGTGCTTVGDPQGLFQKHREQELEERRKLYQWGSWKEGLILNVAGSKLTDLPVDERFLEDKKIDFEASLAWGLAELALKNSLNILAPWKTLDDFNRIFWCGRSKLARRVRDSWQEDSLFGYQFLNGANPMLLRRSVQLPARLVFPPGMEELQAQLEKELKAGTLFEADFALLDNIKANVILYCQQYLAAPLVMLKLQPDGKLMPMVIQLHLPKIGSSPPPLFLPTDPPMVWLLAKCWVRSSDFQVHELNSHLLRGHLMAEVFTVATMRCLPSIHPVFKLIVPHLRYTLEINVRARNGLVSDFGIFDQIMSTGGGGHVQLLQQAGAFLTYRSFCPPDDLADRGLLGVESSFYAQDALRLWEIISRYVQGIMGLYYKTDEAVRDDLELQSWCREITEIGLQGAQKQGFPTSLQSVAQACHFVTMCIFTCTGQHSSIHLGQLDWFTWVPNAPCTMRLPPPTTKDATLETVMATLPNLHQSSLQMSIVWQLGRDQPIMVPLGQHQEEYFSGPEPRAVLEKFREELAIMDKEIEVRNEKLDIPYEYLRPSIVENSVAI

[9] = target: T3, Muscarinic acetylcholine receptor M4 (Homo sapiens, UniProt P08173); assay type: cell membranes, CHO-K1, Membrane; settings: cho-k1; also: in other assays of this panel Not Active means under 50% inhibition at 10 µM
T3 sequence (P08173 whole entry): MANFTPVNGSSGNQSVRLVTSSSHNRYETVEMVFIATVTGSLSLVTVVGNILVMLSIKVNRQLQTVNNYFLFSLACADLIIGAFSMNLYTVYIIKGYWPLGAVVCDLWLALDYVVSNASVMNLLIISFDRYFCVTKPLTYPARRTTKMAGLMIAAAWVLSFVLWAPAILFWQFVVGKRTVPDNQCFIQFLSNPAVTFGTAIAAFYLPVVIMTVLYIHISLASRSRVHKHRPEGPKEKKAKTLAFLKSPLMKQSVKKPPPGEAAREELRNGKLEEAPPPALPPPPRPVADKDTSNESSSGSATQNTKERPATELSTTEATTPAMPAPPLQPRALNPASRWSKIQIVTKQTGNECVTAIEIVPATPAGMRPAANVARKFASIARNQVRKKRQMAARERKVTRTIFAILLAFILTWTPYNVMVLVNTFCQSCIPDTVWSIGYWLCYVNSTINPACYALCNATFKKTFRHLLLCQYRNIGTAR

[10] = DRUGMATRIX: Phorbol Ester radioligand binding (ligand: [3H] PDBu); assay type: cell membranes, Mus musculus, ICR, Brain, Membrane; settings: Not Active = under 50% inhibition at 10 µM
[11] = DRUGMATRIX: Platelet-Derived Growth Factor (PDGF) radioligand binding (ligand: [125I] PDGF); assay type: cell-based; settings: nih3t3; Not Active = under 50% inhibition at 10 µM
[12] = target: Mitogen-activated protein kinase 14 (Homo sapiens, UniProt Q16539); design: species or system Escherichia coli
Mitogen-activated protein kinase 14, sequence (Q16539 whole entry): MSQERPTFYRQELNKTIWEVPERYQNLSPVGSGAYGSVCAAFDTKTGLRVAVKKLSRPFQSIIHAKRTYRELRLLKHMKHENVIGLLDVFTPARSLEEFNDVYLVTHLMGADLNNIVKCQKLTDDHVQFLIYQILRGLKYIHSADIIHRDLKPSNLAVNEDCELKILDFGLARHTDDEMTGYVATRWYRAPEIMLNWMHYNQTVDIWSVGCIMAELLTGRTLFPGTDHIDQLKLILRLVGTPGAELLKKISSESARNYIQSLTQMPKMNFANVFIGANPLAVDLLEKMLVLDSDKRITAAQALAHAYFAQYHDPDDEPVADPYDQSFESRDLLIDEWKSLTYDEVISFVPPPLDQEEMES

[13] = DRUGMATRIX: Purinergic P2X radioligand binding (ligand: [3H] alpha, beta-Methylene-ATP); assay type: cell membranes, Oryctolagus cuniculus, New Zealand albino, Urinary bladder, Membrane; settings: Not Active = under 50% inhibition at 10 µM
[14] = target: T4, Adenosine receptor A1 (Homo sapiens, UniProt P30542); assay type: cell membranes, CHO, Membrane; settings: cho
T4 sequence (P30542 whole entry): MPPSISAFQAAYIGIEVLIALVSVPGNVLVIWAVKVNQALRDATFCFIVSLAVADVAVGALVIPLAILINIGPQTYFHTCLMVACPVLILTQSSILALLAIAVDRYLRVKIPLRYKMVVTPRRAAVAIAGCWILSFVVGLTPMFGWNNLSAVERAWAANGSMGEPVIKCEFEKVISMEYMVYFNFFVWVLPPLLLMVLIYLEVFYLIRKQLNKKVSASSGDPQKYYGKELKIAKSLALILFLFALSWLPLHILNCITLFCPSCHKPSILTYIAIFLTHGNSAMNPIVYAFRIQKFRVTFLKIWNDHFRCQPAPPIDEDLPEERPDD

Beta-1 adrenergic receptor, sequence (P08588 whole entry): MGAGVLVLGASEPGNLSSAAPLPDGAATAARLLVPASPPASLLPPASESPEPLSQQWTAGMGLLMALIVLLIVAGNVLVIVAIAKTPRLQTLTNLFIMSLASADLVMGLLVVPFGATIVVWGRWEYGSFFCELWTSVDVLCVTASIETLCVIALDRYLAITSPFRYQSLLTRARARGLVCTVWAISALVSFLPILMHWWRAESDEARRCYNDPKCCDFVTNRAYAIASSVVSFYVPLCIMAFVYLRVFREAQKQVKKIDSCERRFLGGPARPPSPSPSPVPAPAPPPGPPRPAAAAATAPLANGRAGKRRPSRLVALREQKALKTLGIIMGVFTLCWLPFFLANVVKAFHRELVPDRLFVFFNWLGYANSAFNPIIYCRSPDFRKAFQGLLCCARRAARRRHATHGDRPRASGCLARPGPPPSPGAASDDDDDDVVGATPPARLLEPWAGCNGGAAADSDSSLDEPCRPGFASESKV

Q: Which results are given for COC(=O)[C@@H]1[C@H]2C[C@H]3c4[nH]c5ccccc5c4CCN3C[C@@H]2CC[C@@H]1O [YOHIMBINE]?
A: IC50 [1]: Not Active; IC50 [2]: Not Active; Ki [2]: Not Active; IC50 [3]: Not Active; IC50 [4]: Not Active; Ki [4]: Not Active; IC50 [5]: Not Active; IC50 [6]: Not Active; Ki [6]: Not Active; IC50 [7]: Not Active; IC50 [8]: Not Active; IC50 [9]: Not Active; IC50 [10]: Not Active; Ki [10]: Not Active; IC50 [11]: Not Active; Ki [11]: Not Active; IC50 [12]: Not Active; IC50 [13]: Not Active; Ki [13]: Not Active; IC50 [14]: Not Active

Q: With IVERMECTIN as the compound, how does the IC50 [1] read?
A: Not Active

Q: What about the Ki [1] of the same compound?
A: Not Active

Q: What about the IC50 [2] of the same compound?
A: Not Active

Q: What about the Ki [2] of the same compound?
A: Not Active

Q: And the IC50 [3]?
A: Not Active

Q: And the Ki [3]?
A: Not Active

Q: And the IC50 [4]?
A: Not Active

Q: What about the Ki [4] of the same compound?
A: Not Active

Q: What about the IC50 ([5]; read-out: IC50) of the same compound?
A: 4.51 µM

Q: What about the Ki ([5]; read-out: Ki) of the same compound?
A: 2.26 µM

Q: What about the IC50 [6] of the same compound?
A: Not Active

Q: And the Ki [6]?
A: Not Active

Q: What about the IC50 [7] of the same compound?
A: Not Active

Q: What about the Ki [7] of the same compound?
A: Not Active

Q: And the IC50 [8]?
A: Not Active

Q: What about the Ki [8] of the same compound?
A: Not Active

Q: What about the IC50 [9] of the same compound?
A: Not Active

Q: And the Ki [9]?
A: Not Active

Q: And the IC50 [10]?
A: Not Active

Q: What about the Ki [10] of the same compound?
A: Not Active

Q: What about the IC50 [11] of the same compound?
A: Not Active

Q: What about the Ki [11] of the same compound?
A: Not Active

Q: What about the IC50 [12] of the same compound?
A: Not Active

Q: What about the Ki [12] of the same compound?
A: Not Active

Q: And the IC50 [13]?
A: Not Active

Q: And the Ki [13]?
A: Not Active

Q: And the IC50 [14]?
A: Not Active

Q: What about the Ki [14] of the same compound?
A: Not Active
